From paper PMC3220188 (Nature Communications, 2010)
Values after ≈ are worked out from the molar mass of the structure shown. Read-outs that look alike come from different tables or passages of the source. Marks after values point to notes of the source that are not given here.

Assays:
[1] = test system: M. tuberculosis H37Rv; assay: microbe, parasite or virus in culture; assay type: cell-based, Mycobacterium tuberculosis
[2] = in vitro; assay type: cell-based; conditions: human
[3] = in vivo; assay type: in vivo, CD-1 female mice; conditions: for fAUC/MIC / fT>MIC: corrected for plasma protein binding; for T>MIC: percentage of dosing interval with plasma levels above MIC
[4] = test system: MTB pMV262-rv0577; assay: microbe, parasite or virus in culture; assay type: cell-based; conditions: Mycobacterium tuberculosis, read-out: MTB pMV262-rv0577 MIC50
[5] = test system: M. tuberculosis H37Rv; assay type: cell-based, Mycobacterium tuberculosis; conditions: for ATP pool depleted: in the presence of glycerol, 24 h after treatment; for very rapid ATP depletion in M. tuberculosis: reference compounds, 24 h
[6] = test system: M. tuberculosis H37Rv; assay: Metabolomic profiling by LC/MS; assay type: cell-based, Mycobacterium tuberculosis; conditions: 24 h after treatment, in the presence of glycerol
[7] = test system: Rv0577, Rv0911, Rv2298 and lldD2; assay type: binding, M. bovis BCG
[8] = Mycobacterium tuberculosis, H37RV
[9] = Mycobacterium tuberculosis, H37RV, read-out: MTB H37Rv MIC50
[10] = female, CD-1, mouse, in vivo, po, 25 mg/kg
[11] = mouse, single oral dose 25 mg kg^−1, lung
[12] = female, CD-1, mouse, in vivo, po, 100 mg/kg

Compound: Cc1ccc(NC(=O)c2ccccc2)cc1Nc1nccn1-c1cc(NC2CCCC2)ncn1 [Compound 1, N-(3-(1-(6-(Cyclopentylamino)pyrimidin-4-yl)-1H-imidazol-2-ylamino)-4-methylphenyl)benzamide]
- MIC50 [1, 8]: 0.75 ± 0.32 µM (≈ 0.34 µg/mL)
- MIC50 [1, 9]: 0.35 ± 0.1 µM (≈ 0.159 µg/mL)
- CC50 [2]: > 50 µM
- AUC [3, 10]: 23400 ng·h/mL
- Cmax [3, 10]: 4000 ng/mL
- Tmax [3, 10]: 1 h
- bioavailability [3, 10]: 100%
- half-life [3, 10]: 2.5 h
- Lung AUC/MIC ([3]; mouse, 25 mg kg^−1, lung): 31.2
- Lung T>MIC ([3]; mouse, 25 mg kg^−1, lung): 32
- fAUC/MIC ([3]; mouse, 25 mg kg^−1): 8.6
- fT>MIC ([3]; mouse, 25 mg kg^−1): 10%
- T>MIC ([3]; mouse, 25 mg kg^−1): 42%
- Lung AUC [3, 11]: 10.2 µg·h/g
- MIC50 [4]: 2.32 ± 0.4 µM (≈ 1.05 µg/mL)
- ATP pool depleted [5]: > 75%
- accumulation of glycerol phosphate [6]: significant accumulation

Compound: c1ccc(-c2nc3cc(Nc4nccn4-c4cc(NC5CCCC5)ncn4)ccc3[nH]2)cc1 [Compound 2, N-(1-(6-(Cyclopentylamino)pyrimidin-4-yl)-1H-imidazol-2-yl)-2-phenyl-1H-benzo[d]imidazol-5-amine]
- MIC50 [1, 8]: 0.57 ± 0.23 µM (≈ 0.249 µg/mL)
- MIC50 [1, 9]: 0.34 ± 0.11 µM (≈ 0.148 µg/mL)
- CC50 [2]: > 50 µM
- AUC [3, 10]: 10600 ng·h/mL
- Cmax [3, 10]: 3800 ng/mL
- Tmax [3, 10]: 0.5 h
- bioavailability [3, 10]: 100%
- half-life [3, 10]: 2.2 h
- Lung AUC/MIC ([3]; mouse, 25 mg kg^−1, lung): 44.8
- Lung T>MIC ([3]; mouse, 25 mg kg^−1, lung): 54
- fAUC/MIC ([3]; mouse, 25 mg kg^−1): 17.8
- fT>MIC ([3]; mouse, 25 mg kg^−1): 26%
- T>MIC ([3]; mouse, 25 mg kg^−1): 38%
- Lung AUC [3, 11]: 10.7 µg·h/g
- MIC50 [4]: 3.53 ± 1.13 µM (≈ 1.54 µg/mL)
- ATP pool depleted [5]: > 75%
- accumulation of glycerol phosphate [6]: significant accumulation

Compound: Cc1ccc(C(=O)N2CCOCC2)cc1Nc1nccn1-c1cc(NC2CC2)ncn1 [Compound 3, (3-(1-(6-(Cyclopropylamino)pyrimidin-4-yl)-1H-imidazol-2-ylamino)-4-methylphenyl)(morpholino)methanone]
- MIC50 [1, 8]: 0.036 ± 0.04 µM (≈ 0.0151 µg/mL)
- CC50 [2]: > 50 µM
- AUC [3, 10]: 12400 ng·h/mL
- Cmax [3, 10]: 3000 ng/mL
- Tmax [3, 10]: 0.5 h
- bioavailability [3, 10]: 50%
- half-life [3, 10]: 2.3 h
- AUC [3, 12]: 59300 ng·h/mL
- Cmax [3, 12]: 8900 ng/mL
- Tmax [3, 12]: 0.5 h
- bioavailability [3, 12]: 50%
- half-life [3, 12]: 3 h
- Lung AUC/MIC ([3]; mouse, 25 mg kg^−1, lung): 1070.6
- Lung T>MIC ([3]; mouse, 25 mg kg^−1, lung): 100
- fAUC/MIC ([3]; mouse, 25 mg kg^−1): 113.7
- fT>MIC ([3]; mouse, 25 mg kg^−1): 47%
- T>MIC ([3]; mouse, 25 mg kg^−1): 73%
- Lung T>MIC ([3]; mouse, 100 mg kg^−1, lung): 100
- Lung AUC/MIC ([3]; mouse, 100 mg kg^−1, lung, extrapolated assuming lung exposure proportional to dose): 4654.8 ^*
- fAUC/MIC ([3]; mouse, 100 mg kg^−1): 544.6
- fT>MIC ([3]; mouse, 100 mg kg^−1): 82%
- T>MIC ([3]; mouse, 100 mg kg^−1): 100%
- exposure versus dose ([3]; mouse, 25 and 100 mg kg^−1): proportional to dose
- Lung AUC [3, 11]: 17.5 µg·h/g

Compound: Cc1ccc(NC(=O)c2cccc(NCCN)c2)cc1Nc1nccn1-c1cc(NC2CC2)ncn1 [Compound 4, 3-(2-Aminoethylamino)-N-(3-(1-(6-(cyclopropylamino)pyrimidin-4-yl)-1H-imidazol-2-ylamino)-4-methylphenyl)benzamide]
- MIC50 [1, 8]: 0.21 ± 0.01 µM (≈ 0.102 µg/mL)
- binding of candidate proteins to sepharose-linked 4 in the presence of free 4 [7]: dramatically decreased

Compound: O=C(CO)COP(=O)(O)O [DHAP, dihydroxyacetone phosphate]
- MIC50 [1]: 1200 µM

Compound: CC[C@@H](CO)NCCN[C@@H](CC)CO [EMB, ethambutol, reference compound]
- AUC [3, 12]: 8000 ng·h/mL
- Cmax [3, 12]: 2500 ng/mL
- Tmax [3, 12]: 0.5 h
- half-life [3, 12]: 1.8 h
- Lung AUC ([3]; mouse, 100 mg kg^−1, lung): 145 µg·h/g
- Lung AUC/MIC ([3]; mouse, 100 mg kg^−1, lung): 247
- fAUC/MIC ([3]; mouse, 100 mg kg^−1): 10
- fT>MIC ([3]; mouse, 100 mg kg^−1): 15%
- T>MIC ([3]; mouse, 100 mg kg^−1): 17%

Compound: NNC(=O)c1ccncc1 [Isoniazid, isoniazid, reference compound]
- activity against M. tuberculosis in the absence of glycerol in the culture medium [1]: comparable
- MIC50 [1, 9]: 0.42 ± 0.03 µM (≈ 0.0576 µg/mL)
- AUC [3, 10]: 52000 ng·h/mL
- Cmax [3, 10]: 28000 ng/mL
- fT>MIC ([3]; mouse, 25 mg kg^−1): 62%
- T>MIC ([3]; mouse, 25 mg kg^−1): 68%
- Tmax ([3]; mouse, single oral dose 25 mg kg^−1, plasma): 0.25 h
- MIC50 [4]: 0.37 ± 0.05 µM (≈ 0.0507 µg/mL)

Compound: [H]/N=C(/N)N[C@H]1[C@H](O)[C@@H](O)[C@H](O[C@@H]2O[C@@H](C)[C@](O)(C=O)[C@H]2O[C@@H]2O[C@@H](CO)[C@H](O)[C@@H](O)[C@@H]2NC)[C@@H](N/C(N)=N\[H])[C@@H]1O [Streptomycin, streptomycin, reference compound]
- activity against M. tuberculosis in the absence of glycerol in the culture medium [1]: comparable
- MIC50 [1, 9]: 0.18 ± 0.02 µM (≈ 0.105 µg/mL)
- MIC50 [4]: 0.12 ± 0.01 µM (≈ 0.0698 µg/mL)
- very rapid ATP depletion in M. tuberculosis [5]: not observed

Compound: O=P(O)(O)OCC(O)CO (centres unmarked) [glycerol phosphate]
- MIC50 [1]: 12500 µM

Compound: CC(=O)C=O [methylglyoxal]
- MIC50 [1]: 400 µM (≈ 28.8 µg/mL)

Compound: COc1c(N2C[C@@H]3CCCN[C@@H]3C2)c(F)cc2c(=O)c(C(=O)O)cn(C3CC3)c12 [moxifloxacin, reference compound]
- activity against M. tuberculosis in the absence of glycerol in the culture medium [1]: comparable
- very rapid ATP depletion in M. tuberculosis [5]: not observed
